This passage reports IC50 results from patent US20240066027A1 (DOMAIN THERAPEUTICS, priority 2020, published 2024).

Counter-ions that a name gives are not always drawn.

The target of the assay is T1, human PAR-2 (hPAR-2) receptor expressed in HEK-293 T cells in an endogenous manner (Homo sapiens, UniProt P55085).
T1 construct: human PAR-2 (hPAR-2) receptor expressed in HEK-293 T cells in an endogenous manner; endogenous in cells; host or cells: HEK-293 T cells
T1 sequence (P55085 26-397): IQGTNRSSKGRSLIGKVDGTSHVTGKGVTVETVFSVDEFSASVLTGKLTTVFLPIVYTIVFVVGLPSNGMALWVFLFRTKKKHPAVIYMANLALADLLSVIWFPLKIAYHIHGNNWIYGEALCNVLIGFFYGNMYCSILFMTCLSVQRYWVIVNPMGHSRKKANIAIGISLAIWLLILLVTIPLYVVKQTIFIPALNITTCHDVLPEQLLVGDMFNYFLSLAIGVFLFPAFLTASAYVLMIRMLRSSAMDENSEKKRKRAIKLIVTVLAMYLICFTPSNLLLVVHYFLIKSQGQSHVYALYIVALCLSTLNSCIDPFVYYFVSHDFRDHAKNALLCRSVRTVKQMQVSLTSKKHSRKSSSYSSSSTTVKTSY
The assay is described as follows: In vitro human PAR-2 functional antagonist activity using calcium assays (Fluo4AM, FLIPR Tetra). In kind it is cell-based. The settings on record: HEK-293 T cells stimulated by an EC80 of the 2-Furoyl-LIGRLO-NH2 peptide after 10 min incubation with compound; 20 concentrations, duplicate, two independent experiments. In short, it runs like this:
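Fluo4AM-loaded HEK-293 T cells were exposed to compound for 10 min to read agonist effect. They were then stimulated with an EC80 of 2-Furoyl-LIGRLO-NH2 and intracellular calcium was recorded for 5 more min on FLIPR. Antagonism was scored against buffer basal and EC80 agonist-alone signals.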

The IC50 is the concentration that gives 50% inhibition. `CC(C)Cn1cc(-c2cccc(Cl)c2)c2ccc(C(=O)N3CCNC(=O)C3(C)C)nc21` [Example 50, 4-[3-(3-chlorophenyl)-1-isobutyl-pyrrolo[2,3-b]pyridine-6-carbonyl]-3,3-dimethyl-piperazin-2-one]: the IC50 lay in the range of 20 to 10000 nM.
On to `Cc1cc2c(nc1C(=O)N1CCNC(=O)C1(C)C)c(CC(C)C)nn2-c1ccc(Cl)c(F)c1` [Example 81], for which the concentration for half-maximal inhibition (IC50) was more than 10000 nM.
With `Cc1cc(N2CCN(C(=O)c3cc(C)c4c(-c5ccc(Cl)c(F)c5)cn(CC(C)C)c4n3)C(C)(C)C2)nc(C)c1C(=O)O` [Example 188, 6-(4-(3-(4-chloro-3-fluorophenyl)-1-isobutyl-4-methyl-1H-pyrrolo[2,3-b]pyridine-6-carbonyl)-3,3-dimethylpiperazin-1-yl)-2,4-dimethyinicotinic acid], the half-inhibitory concentration (IC50) lay within 20 to 10000 nM.
For the compound `CC(C)Cc1nn(-c2ccc(Cl)c(F)c2)c2ccc(C(=O)N3CCC4(CC3)NC(=O)NC4=O)nc12` [Example 70, 8-(1-(4-chloro-3-fluorophenyl)-3-isobutyl-1H-pyrazolo[4,3-b]pyridine-5-carbonyl)-1,3,8-triazaspiro[4.5]decane-2,4-dione], the IC50 is more than 10000 nM.
Regarding `CC(C)Cc1nn(-c2ccc(Cl)c(F)c2)c2ccc(C(=O)N3CCNC(=O)C3(C)C)nc12` [Example 62, 4-(1-(4-chloro-3-fluorophenyl)-3-isobutyl-1H-pyrazolo[4,3-b]pyridine-5-carbonyl)-3,3-dimethylpiperazin-2-one], the concentration for half-maximal inhibition (IC50) lay in the range of 20 to 10000 nM.
With `Cc1cc(N2CCN(C(=O)c3ccc4c(-c5ccc(Cl)c(F)c5)c(C(F)(F)F)n(CC(C)C)c4n3)C(C)(C)C2)nc(C)c1C(=O)O` [Example 205, 6-(4-(3-(4-chloro-3-fluorophenyl)-1-isobutyl-2-(trifluoromethyl)-1H-pyrrolo[2,3-b]pyridine-6-carbonyl)-3,3-dimethylpiperazin-1-yl)-2,4-dimethyinicotinic acid] the figure was less than 20 nM; with `Cc1cccnc1Cn1cc(-c2ccc(Cl)c(F)c2)c2ccc(C(=O)N3CCN(c4cc(C)c(C(=O)O)c(C)n4)CC3(C)C)nc21` [Example 193, 6-(4-(3-(4-chloro-3-fluorophenyl)-1-((3-methylpyridin-2-yl)methyl)-1H-pyrrolo[2,3-b]pyridine-6-carbonyl)-3,3-dimethylpiperazin-1-yl)-2,4-dimethylnicotinic acid hydrochloride], less than 20 nM.
With `COC[C@@H](C)n1cc(-c2ccc(Cl)c(F)c2)c2ccc(C(=O)N3CCN(c4cc(C)c(C(=O)O)c(C)n4)CC3(C)C)nc21` [Example 140, (R)-6-(4-(3-(4-chloro-3-fluorophenyl)-1-(1-methoxypropan-2-yl)-1H-pyrrolo[2,3-b]pyridine-6-carbonyl)-3,3-dimethylpiperazin-1-yl)-2,4-dimethyinicotinic acid] the figure was less than 20 nM.
With `CC(C)(C)c1nn(-c2ccc(Cl)c(F)c2)c2ncc(C(=O)N3CCNC(=O)C3(C)C)cc12` [Example 80, 4-(3-(tert-butyl)-1-(4-chloro-3-fluorophenyl)-1H-pyrazolo[3,4-b]pyridine-5-carbonyl)-3,3-dimethylpiperazin-2-one] the figure was 20 to 10000 nM; with `COc1cccc(Cn2cc(-c3ccc(Cl)c(F)c3)c3ccc(C(=O)N4CCN(c5cc(C)c(C(=O)O)c(C)n5)CC4(C)C)nc32)n1` [Example 161, 6-(4-(3-(4-chloro-3-fluorophenyl)-1-((6-methoxypyridin-2-yl)methyl)-1H-pyrrolo[2,3-b]pyridine-6-carbonyl)-3,3-dimethylpiperazin-1-yl)-2,4-dimethylnicotinic acid], less than 20 nM.
For `Cc1cc(N(C)C2CCN(C(=O)c3ccc4c(-c5ccc(Cl)c(F)c5)cn(C(C)(C)C)c4n3)CC2)nc(C)c1C(=O)O` [Example 147, 6-((1-(1-(tert-butyl)-3-(4-chloro-3-fluorophenyl)-1H-pyrrolo[2,3-b]pyridine-6-carbonyl)piperidin-4-yl)(methyl)amino)-2,4-dimethyinicotinic acid], the IC50 lay within 20 to 10000 nM.
With `CC(C)Cn1cc(-c2ccc(Cl)cc2Cl)c2ccc(C(=O)N3CCNC(=O)C3(C)C)nc21` [Example 84, 4-(3-(2,4-dichlorophenyl)-1-isobutyl-1H-pyrrolo[2,3-b]pyridine-6-carbonyl)-3,3-dimethylpiperazin-2-one] the figure was 20 to 10000 nM; with `Cc1nn(-c2ccc(Cl)c(F)c2)c2ccc(C(=O)N3CCNC(=O)C3(C)C)nc12` [Example 71, 4-(1-(4-chloro-3-fluorophenyl)-3-methyl-1H-pyrazolo[4,3-b]pyridine-5-carbonyl)-3,3-dimethylpiperazin-2-one], 20 to 10000 nM.
For `CC1(C)C(=O)NCCN1C(=O)c1ccc2c(-c3ccc(Cl)c(F)c3)cn(C(C)(C)C)c2n1` [Example 1, 4-(1-(tert-butyl)-3-(4-chloro-3-fluorophenyl)-1H-pyrrolo[2,3-b]pyridine-6-carbonyl)-3,3-dimethylpiperazin-2-one], the IC50 was less than 20 nM.
With `CC(C)(C)n1cc(-c2ccc(Cl)c(F)c2)c2ccc(C(=O)N3CCC4(CCNC4=O)CC3)nc21` [Example 13, 8-(1-(tert-butyl)-3-(4-chloro-3-fluorophenyl)-1H-pyrrolo[2,3-b]pyridine-6-carbonyl)-2,8-diazaspiro[4.5]decan-1-one] the figure was 20 to 10000 nM; with `Cc1cccc(Cn2cc(-c3ccc(Cl)c(F)c3)c3ccc(C(=O)N4CCN(c5cc(C)c(C(=O)O)c(C)n5)CC4(C)C)nc32)n1` [Example 192, 6-(4-(3-(4-chloro-3-fluorophenyl)-1-((6-methylpyridin-2-yl)methyl)-1H-pyrrolo[2,3-b]pyridine-6-carbonyl)-3,3-dimethylpiperazin-1-yl)-2,4-dimethylnicotinic acid hydrochloride], less than 20 nM; with `Cc1cc(N2CCN(C(=O)c3ccc4c(-c5ccc(Cl)c(F)c5)cn(C(C)(C)C)c4n3)C(C)(C)C2)cc(C)c1C(=O)O` [Example 210, 4-(4-(1-(tert-butyl)-3-(4-chloro-3-fluorophenyl)-1H-pyrrolo[2,3-b]pyridine-6-carbonyl)-3,3-dimethylpiperazin-1-yl)-2,6-dimethylbenzoic acid], less than 20 nM.
As to `Cc1cc(N2CCN(C(=O)c3ccc4c(-c5ccc(Cl)c(F)c5)cn(CC(C)(C)O)c4n3)C(C)(C)C2)nc(C)c1C(=O)O` [Example 180, 6-(4-(3-(4-chloro-3-fluorophenyl)-1-(2-hydroxy-2-methylpropyl)-1H-pyrrolo[2,3-b]pyridine-6-carbonyl)-3,3-dimethylpiperazin-1-yl)-2,4-dimethylnicotinic acid], the IC50 was in the range of 20 to 10000 nM.
In the case of `CNC(=O)CN1CCN(C(=O)c2ccc3c(-c4ccc(Cl)c(F)c4)cn(C(C)(C)C)c3n2)C(C)(C)C1=O` [Example 6, 2-(4-(1-(tert-butyl)-3-(4-chloro-3-fluorophenyl)-1H-pyrrolo[2,3-b]pyridine-6-carbonyl)-3,3-dimethyl-2-oxopiperazin-1-yl)-N-methylacetamide], the 50% inhibitory concentration (IC50) is less than 20 nM.
With `CC(C)Cn1cc(-c2ccccc2Cl)c2ccc(C(=O)N3CCNC(=O)C3(C)C)nc21` [Example 53, 4-[3-(2-chlorophenyl)-1-isobutyl-pyrrolo[2,3-b]pyridine-6-carbonyl]-3,3-dimethyl-piperazin-2-one] the figure was 20 to 10000 nM; with `Cc1cc(N2CCN(C(=O)c3ccc4c(-c5ccc(Cl)c(F)c5)cn(C(C)(C)C)c4n3)C(C)(C)C2)nc(C)c1C(=O)O` [Example 26, 6-(4-(1-(tert-butyl)-3-(4-chloro-3-fluorophenyl)-1H-pyrrolo[2,3-b]pyridine-6-carbonyl)-3,3-dimethylpiperazin-1-yl)-2,4-dimethylnicotinic acid], less than 20 nM.
Consider `CC(C)Cn1cc(-c2ccccc2F)c2ccc(C(=O)N3CCNC(=O)C3(C)C)nc21` [Example 113, 4-(3-(2-fluorophenyl)-1-isobutyl-1H-pyrrolo[2,3-b]pyridine-6-carbonyl)-3,3-dimethylpiperazin-2-one], for which the half-inhibitory concentration (IC50) lay within 20 to 10000 nM.
With `Cc1cc(N2CCN(C(=O)c3ccc4c(-c5ccc(Cl)c(F)c5)cn(C(C)(C)c5ccccn5)c4n3)C(C)(C)C2)nc(C)c1C(=O)O` [Example 131, 6-(4-(3-(4-chloro-3-fluorophenyl)-1-(2-(pyridin-2-yl)propan-2-yl)-1H-pyrrolo[2,3-b]pyridine-6-carbonyl)-3,3-dimethylpiperazin-1-yl)-2,4-dimethylnicotinic acid] the figure was less than 20 nM; with `CC(C)(C)n1cc(-c2ccc(Cl)c(F)c2)c2ccc(C(=O)N3CC[C@H]4CNC(=O)[C@H]43)nc21` [Example 15, (3aS,6aS)-1-(1-(tert-butyl)-3-(4-chloro-3-fluorophenyl)-1H-pyrrolo[2,3-b]pyridine-6-carbonyl)hexahydropyrrolo[3,4-b]pyrrol-6(1H)-one], 20 to 10000 nM.
Consider `COc1ccc(Cn2cc(-c3ccc(Cl)c(F)c3)c3ccc(C(=O)N4CCNC(=O)C4(C)C)nc32)cc1` [Example 27, 4-(3-(4-chloro-3-fluorophenyl)-1-(4-methoxybenzyl)-1H-pyrrolo[2,3-b]pyridine-6-carbonyl)-3,3-dimethylpiperazin-2-one], for which the IC50 fell in the range of 20 to 10000 nM.
